The values below come from patent US20240300975A1, “DIMETHYL-SUBSTITUTED THIAZOLOLACTAM COMPOUND AND USE THEREOF” (D3 Bio (Wuxi) Co., Ltd., priority 2021, published 2024).

pIC50: −log10 of the molar value.

One data set addresses ERK1 (Homo sapiens (Human), UniProt P27361). Put plainly: In vitro ERK1 kinase activity assay (33P-ATP, filter-binding). It counts as biochemical. The method, then:
(§1) The ability of compounds to inhibit ERK1 and ERK2 kinase activity was measured.
(§2) 20 mM Hepes (pH 7.5), 10 mM MgCl2, 1 mM ethylenebis(oxyethylenenitrilo)tetraacetic acid (EGTA), 0.02% Brij35, 0.02 mg/mL bovine serum albumin (BSA), 0.1 mM Na3VO4, 2 mM dithiothreitol (DTT), 1% DMSO.
(§3) The assay compound was dissolved in 100% DMSO to prepare a stock solution of specific concentration. The compound was serially diluted in DMSO solution using Integra Viaflo Assist smart pipette.
(§4) • a) The substrate MBP was prepared in freshly prepared reaction buffer; • b) ERK1 (or ERK2) kinase was added to the above-mentioned MBP solution and mixed gently; • c) The compound dissolved in 100% DMSO was added to the kinase reaction system using ultrasound technology (Echo550; nanoliter range), and the mixture was incubated at room temperature for 20 minutes; • d)^33P-ATP (specific concentration of […]) was added to the reaction system, and the reaction was started at this time; • e) The mixture was incubated at room temperature for 2 hours; • f) The amount of radioactivity was detected by filter-binding method; • g) ERK1 (or ERK2) kinase activity was calculated as the ratio of the remaining kinase activity in the assay sample to the kinase activity of the control group (treated by DMSO).
(§5) Curve was fitted using Prism (GraphPad software) and IC50 values were calculated.

A further data set has as its target ERK2 (Homo sapiens (Human), UniProt P28482). Put plainly: In vitro ERK2 kinase activity assay (33P-ATP, filter-binding). It counts as biochemical. The method, then:
as §1, §2, §3, §4, §5

The nature of data set [1]: In vivo PK study in cynomolgus monkeys. Particulars: male cynomolgus monkeys. The method, then: Male cynomolgus monkeys were used as assay animals. After a single administration, the plasma concentration of the compound was measured and the pharmacokinetic behavior was evaluated.
Five healthy adult male cynomolgus monkeys were selected, wherein 2 animals were in an intravenous injection group, and 3 animals were in an oral group. The vehicle in the intravenous injection group was 5% DMSO+95% (20% HP-β-CD). The compound to be assayed was mixed with an appropriate amount of vehicle for intravenous injection, and dissolved with stirring to prepare a clear solution of 0.4 mg/mL. The clear solution was filtered by a microporous membrane, and then ready for use. The vehicle in the oral group was 5% DMSO+95% (20% HP-β-CD). The compound to be assayed was mixed with the vehicle, and dissolved with stirring to prepare a solution of 0.3 mg/mL. Cynomolgus monkeys were administered 1 mg/kg intravenously or 3 mg/kg orally, and then whole blood was collected for a certain period. Plasma was prepared. The drug concentration was analyzed by LC-MS/MS method, and the pharmacokinetic parameters were calculated by Phoenix WinNonlin software (Pharsight, USA).

The target of a further data set is hERG potassium channel (Homo sapiens (Human), UniProt Q12809). Description: hERG assay (automated patch-clamp, CHO-hERG cells). The class given is cell-based. As to conditions: Qpatch, highest assayed concentration 40 μM. The method, then:
A fully automated patch-clamp method was used to assay the effect of the compound on hERG potassium channel (human Ether-a-go-go Related Gene potassium channel) current.
CHO-hERG cells were cultured in a 175 cm^2 culture flask. When cells grew to a density of 60˜80%, the culture medium was removed. Cells were washed once with 7 mL of PBS (Phosphate Buffered Saline), and then 3 mL of Detachin was added for digestion. After the digestion was completed, 7 mL of culture medium was added for neutralization, and then the mixture was centrifuged. The supernatant was aspirated, and then 5 mL of culture medium was added to resuspend the cells and ensure that the cell density was 2˜5×10^6/mL.
Extracellular solution formulation (mM): 140 NaCl, 5 KCl, 1 CaCl2), 1.25 MgCl2, 10 HEPES and 10 Glucose; the formulation was adjusted to pH of 7.4 with NaOH. […]
The single-cell high-impedance sealing and whole-cell pattern formation processes were all automatically performed by a Qpatch instrument. […] This voltage stimulation was applied every 15 seconds, and recorded for 2 minutes. The extracellular solution was then given, and recorded for 5 minutes. […]
Assay data were analyzed by GraphPad Prism 5.0 software. […]
• The inhibitory effect of Cisapride with multiple concentrations on the hERG channel was measured as a positive control.
For orientation: hERG is a cardiac potassium channel; its block is linked to QT prolongation.

Chain of hERG potassium channel (Q12809 whole entry): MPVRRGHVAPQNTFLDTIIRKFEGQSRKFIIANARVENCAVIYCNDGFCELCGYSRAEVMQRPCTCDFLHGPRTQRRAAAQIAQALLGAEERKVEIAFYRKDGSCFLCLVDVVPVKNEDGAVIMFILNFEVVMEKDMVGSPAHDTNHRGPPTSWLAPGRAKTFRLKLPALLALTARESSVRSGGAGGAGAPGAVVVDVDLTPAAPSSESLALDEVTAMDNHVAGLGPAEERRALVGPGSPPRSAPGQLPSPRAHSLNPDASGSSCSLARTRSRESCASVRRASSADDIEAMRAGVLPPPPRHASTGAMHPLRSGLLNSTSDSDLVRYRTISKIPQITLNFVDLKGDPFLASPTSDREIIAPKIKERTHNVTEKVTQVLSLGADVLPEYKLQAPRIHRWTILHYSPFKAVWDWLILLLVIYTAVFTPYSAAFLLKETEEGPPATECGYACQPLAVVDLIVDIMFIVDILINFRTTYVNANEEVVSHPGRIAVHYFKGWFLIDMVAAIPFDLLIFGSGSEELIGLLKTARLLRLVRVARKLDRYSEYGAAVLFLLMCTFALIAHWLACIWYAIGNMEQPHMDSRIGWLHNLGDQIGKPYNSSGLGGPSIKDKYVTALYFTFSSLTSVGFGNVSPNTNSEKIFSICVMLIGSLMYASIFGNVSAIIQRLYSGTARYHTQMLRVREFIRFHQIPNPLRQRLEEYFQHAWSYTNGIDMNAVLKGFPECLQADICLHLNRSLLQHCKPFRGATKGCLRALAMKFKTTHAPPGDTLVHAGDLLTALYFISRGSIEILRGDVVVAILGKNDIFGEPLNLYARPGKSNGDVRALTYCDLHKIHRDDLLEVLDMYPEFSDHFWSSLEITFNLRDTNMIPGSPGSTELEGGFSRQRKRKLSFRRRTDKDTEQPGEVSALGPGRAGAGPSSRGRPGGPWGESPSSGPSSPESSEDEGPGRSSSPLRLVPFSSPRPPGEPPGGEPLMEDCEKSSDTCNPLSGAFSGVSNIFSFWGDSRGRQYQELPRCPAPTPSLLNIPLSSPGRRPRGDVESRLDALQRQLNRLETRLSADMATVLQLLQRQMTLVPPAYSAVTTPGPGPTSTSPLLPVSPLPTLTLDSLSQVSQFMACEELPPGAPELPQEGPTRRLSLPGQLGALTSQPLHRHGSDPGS
Chain of ERK1 (P27361 whole entry): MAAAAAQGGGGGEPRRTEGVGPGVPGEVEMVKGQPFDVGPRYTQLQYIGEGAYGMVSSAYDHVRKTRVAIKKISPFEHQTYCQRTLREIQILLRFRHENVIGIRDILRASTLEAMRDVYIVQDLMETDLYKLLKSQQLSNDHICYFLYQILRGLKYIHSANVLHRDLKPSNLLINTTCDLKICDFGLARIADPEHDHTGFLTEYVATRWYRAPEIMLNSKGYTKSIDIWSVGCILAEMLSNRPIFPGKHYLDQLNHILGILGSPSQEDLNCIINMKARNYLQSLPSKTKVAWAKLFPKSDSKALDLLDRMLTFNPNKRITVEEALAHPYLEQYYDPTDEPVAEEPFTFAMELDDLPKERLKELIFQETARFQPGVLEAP
Chain of ERK2 (P28482 whole entry): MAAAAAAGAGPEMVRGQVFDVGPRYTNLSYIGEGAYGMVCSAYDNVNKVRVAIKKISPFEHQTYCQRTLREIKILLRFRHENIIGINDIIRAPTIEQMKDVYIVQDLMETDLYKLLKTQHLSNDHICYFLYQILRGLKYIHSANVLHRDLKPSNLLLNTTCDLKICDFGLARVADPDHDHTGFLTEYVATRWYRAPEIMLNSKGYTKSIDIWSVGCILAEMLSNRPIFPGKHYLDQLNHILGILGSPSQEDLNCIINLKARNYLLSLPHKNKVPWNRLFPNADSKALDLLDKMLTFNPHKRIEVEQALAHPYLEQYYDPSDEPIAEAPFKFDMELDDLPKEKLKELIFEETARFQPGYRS

A word on the pIC50: it is the negative decadic logarithm of the IC50, by convention in mol/L. What is called clearance is the rate of elimination divided by the concentration. Lower therefore signals a low capacity for elimination. In general, bioavailability refers to dose-corrected exposure relative to a reference, in per cent. What is called half-life is how long it takes for the measured level to halve. Low values mean fast loss, high ones slow loss. In general, Cmax refers to the maximum level reached in the sampled fluid or tissue. Take `Cc1cccc(CN2C(=O)c3nc(-c4nc(Nc5ccnn5C)ncc4C)sc3C2(C)C)n1` [WX001]: the pIC50 at ERK1 was 8.92; on ERK2, 9.31; on hERG potassium channel, below 4.40. In data set [1] (cynomolgus monkey, plasma, iv, 1 mg/kg intravenously), this compound displayed a clearance of 7.9 mL/min/kg. For the same compound, the Vd in data set [1] (cynomolgus monkey, plasma, iv, 1 mg/kg intravenously, read-out: Vdss) was found to be 1.19 L/kg. Further, the bioavailability in data set [1] (cynomolgus monkey, plasma, oral, 1 mg/kg intravenously / 3 mg/kg orally, read-out: F % (oral bioavailability)) is 41%. In addition, the half-life in data set [1] (cynomolgus monkey, plasma, single administration) is 2 h. In data set [1] (cynomolgus monkey, po, 3 mg/kg orally, plasma), the Cmax stood at 1250 nM. Besides, the “Oral DNAUC (AUCPO/Dose)” value in data set [1] (3 mg/kg orally) stood at 1995.93 nM · h/mpk.
